Biological target: T1, NrtA (Synechocystis sp. PCC 6803, UniProt P73452)
T1 sequence (P73452 30-446): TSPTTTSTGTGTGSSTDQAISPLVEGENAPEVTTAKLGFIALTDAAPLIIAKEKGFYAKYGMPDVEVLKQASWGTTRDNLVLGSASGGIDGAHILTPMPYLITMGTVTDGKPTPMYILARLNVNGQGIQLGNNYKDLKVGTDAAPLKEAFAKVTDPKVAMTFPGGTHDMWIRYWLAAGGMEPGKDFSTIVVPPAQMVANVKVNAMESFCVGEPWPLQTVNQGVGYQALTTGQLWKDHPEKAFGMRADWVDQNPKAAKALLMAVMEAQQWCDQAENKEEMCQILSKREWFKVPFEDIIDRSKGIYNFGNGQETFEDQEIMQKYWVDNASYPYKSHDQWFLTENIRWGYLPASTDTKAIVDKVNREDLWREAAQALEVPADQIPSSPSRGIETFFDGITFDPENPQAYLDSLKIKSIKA
Test: isothermal titration calorimetry
Format: binding

SMILES	Kd [nM]
O=[N+]([O-])O [nitrate]	57 ± 23
O=NO [nitrite]	230 ± 33

Source: paper PMC9197583 (Chemical communications (Cambridge, England), 2022)
